# Results taken from ChEMBL document CHEMBL4825686, “HTS-based discovery and optimization of novel positive allosteric modulators of the α7 nicotinic acetylcholine receptor” (Eur J Med Chem, 2021).
# Calls of active or inactive are those of the source. The rule behind the calls is not given here.
# What was measured:
# [1] = Drug uptake in Wistar rat brain at 1 mg/kg, ip measured after 35 mins by HPLC-MS/MS analysis; assay type: ADME, organism-based; conditions: read-out: Ct
# [2] = Drug uptake in NMRI mouse brain at 3 mg/kg, ip measured after 1 hr by HPLC-MS/MS analysis; assay type: ADME, organism-based; conditions: read-out: Ct
# [3] = Mutagenicity in Salmonella typhimurium TA1535 in presence of rat liver S9 fraction by AMES test; assay type: toxicity, subcellular; conditions: salmonella enterica subsp. enterica serovar typhimurium
# [4] = molecular target: T1, Neuronal acetylcholine receptor subunit alpha-7 (Homo sapiens, UniProt P36544); assay: Positive allosteric modulation of human alpha7 nAChR expressed in HEK293 cells assessed as inhibition of choline-evoked current desensitization measured after 6 to 10 mins at -80 mV holding potential by automated whole cell patch clamp analysis; assay type: cell-based; conditions: filed as positive allosteric modulator, time 6-10 min
# [5] = Mutagenicity in Salmonella typhimurium TA98 in absence of rat liver S9 fraction by AMES test; assay type: toxicity; conditions: salmonella enterica subsp. enterica serovar typhimurium
# [6] = molecular target: T2, Glutamate NMDA receptor (Rattus norvegicus) (UniProt P35439+Q00959+Q00960+Q00961+Q62645+Q8VHN2+Q9R1M7); assay: Displacement of [3H]TCP from NMDA receptor in Wistar rat cerebral cortex at 10 uM by displacement binding assay; assay type: tissue-based
# [7] = Ratio of drug level in Wistar rat brain to plasma at 1 mg/kg, ip measured after 35 mins by HPLC-MS/MS analysis; assay type: ADME, organism-based; conditions: read-out: BPR
# [8] = molecular target: T1, Neuronal acetylcholine receptor subunit alpha-7; assay: Positive allosteric modulation of human alpha7 nAChR expressed in HEK293 cells assessed as increase in peak current amplitude measured after 6 to 10 mins at -80 mV holding potential by automated whole cell patch clamp analysis; assay type: cell-based
# [9] = molecular target: T2, Glutamate NMDA receptor (Rattus norvegicus); assay: Displacement of [3H]MDL105519 from NMDA receptor in Wistar rat cerebral cortex at 10 uM by displacement binding assay; assay type: tissue-based
# [10] = Plasma concentration in Wistar rat at 10 mg/kg, ip measured after 35 mins by HPLC-MS/MS analysis; assay type: ADME, organism-based
# [11] = Drug uptake in NMRI mouse brain at 10 mg/kg, ip measured after 1 hr by HPLC-MS/MS analysis; assay type: ADME, organism-based; conditions: read-out: Ct
# [12] = Metabolic stability in Wistar rat liver microsomes assessed as intrinsic clearance at 1 uM measured per mg protein upto 40 mins; assay type: ADME, Microsome; conditions: read-out: CLH
# [13] = Ratio of drug level in NMRI mouse brain to plasma at 0.1 mg/kg, ip measured after 1 hr by HPLC-MS/MS analysis; assay type: ADME, organism-based; conditions: read-out: BPR
# [14] = Ratio of drug level in Wistar rat brain to plasma at 10 mg/kg, ip measured after 35 mins by HPLC-MS/MS analysis; assay type: ADME, organism-based; conditions: read-out: BPR
# [15] = system: Mus musculus; assay: Cognitive enhancing effect in scopolamine-induced amnesia NMRI mouse model assessed as increase in recognition index at 1 to 10 mg/kg, ip administered 30 mins prior to scopolamine injection by Y-maze test; assay type: functional, organism-based; conditions: dose 1-10 mg/kg
# [16] = Ratio of drug level in NMRI mouse brain to plasma at 1 mg/kg, ip measured after 1 hr by HPLC-MS/MS analysis; assay type: ADME, organism-based; conditions: read-out: BPR
# [17] = molecular target: GABA-A receptor; anion channel (Rattus norvegicus) (UniProt O09028+P15431+P18506+P18508+P19969+P20236+P23574+P23576+P28471+P28473+P30191+P62813+P63079+P63138+Q91ZM7+Q9ES14); assay: Displacement of [3H]flunitrazepam from GABAA receptor in Wistar rat brain without cerebellum at 10 uM by displacement binding assay; assay type: tissue-based
# [18] = Plasma concentration in Wistar rat at 3 mg/kg, ip measured after 35 mins by HPLC-MS/MS analysis; assay type: ADME, organism-based
# [19] = Plasma concentration in NMRI mouse at 10 mg/kg, ip measured after 1 hr by HPLC-MS/MS analysis; assay type: ADME, organism-based
# [20] = Lipophilicity, logP of the compound; assay type: physicochemical; conditions: octanol/water
# [21] = Drug uptake in NMRI mouse brain at 1 mg/kg, ip measured after 1 hr by HPLC-MS/MS analysis; assay type: ADME, organism-based; conditions: read-out: Ct
# [22] = Drug uptake in Wistar rat brain at 10 mg/kg, ip measured after 35 mins by HPLC-MS/MS analysis; assay type: ADME, organism-based; conditions: read-out: Ct
# [23] = Ratio of drug level in NMRI mouse brain to plasma at 10 mg/kg, ip measured after 1 hr by HPLC-MS/MS analysis; assay type: ADME, organism-based; conditions: read-out: BPR
# [24] = molecular target: GABA-A receptor; alpha-1/beta-3/gamma-2 (Homo sapiens) (UniProt P14867+P18507+P28472); assay: Activation of human alpha1beta3gamma2 GABAA receptor expressed in HEK293 cells assessed as enhancement of GABA induced channel current response at 1 to 10 uM measured after 7 to 10 mins at -80 mV holding potential by whole-cell patch clamp assay; assay type: cell-based; conditions: dose 1-10 µM, time 7-10 min
# [25] = Mutagenicity in Salmonella typhimurium TA1535 in absence of rat liver S9 fraction by AMES test; assay type: toxicity; conditions: salmonella enterica subsp. enterica serovar typhimurium
# [26] = molecular target: Neuronal acetylcholine receptor; alpha3/beta4 (Homo sapiens) (UniProt P30926+P32297); assay: Positive allosteric modulator activity at alpha3beta4 nAChR (unknown origin) upto 10 uM by automated Q-patch clamp assay; conditions: dose microM <=10
# [27] = molecular target: GABA-A receptor; alpha-5/beta-3/gamma-2 (Homo sapiens) (UniProt P18507+P28472+P31644); assay: Inhibition of human alpha5beta3gamma2 GABAA receptor expressed in HEK293 cells assessed as inhibition of GABA induced channel current response at 1 to 10 uM measured after 7 to 10 mins at -80 mV holding potential by whole-cell patch clamp assay; assay type: cell-based; conditions: dose 1-10 µM, time 7-10 min
# [28] = molecular target: T1, Neuronal acetylcholine receptor subunit alpha-7; assay: Positive allosteric modulator activity at human alpha7 nAChR expressed in Flp-In-HEK293 cells co-expressing RIC-3 assessed as potentiation of PNU282987-induced calcium influx measured after 10 mins by FLIPR assay; assay type: cell-based, Flp-In-293; conditions: read-out: EC50
# [29] = Ratio of drug level in NMRI mouse brain to plasma at 3 mg/kg, ip measured after 1 hr by HPLC-MS/MS analysis; assay type: ADME, organism-based; conditions: read-out: BPR
# [30] = Mutagenicity in Salmonella typhimurium TA1537 in absence of rat liver S9 fraction by AMES test; assay type: toxicity; conditions: salmonella enterica subsp. enterica serovar typhimurium
# T1 sequence (P36544 whole entry): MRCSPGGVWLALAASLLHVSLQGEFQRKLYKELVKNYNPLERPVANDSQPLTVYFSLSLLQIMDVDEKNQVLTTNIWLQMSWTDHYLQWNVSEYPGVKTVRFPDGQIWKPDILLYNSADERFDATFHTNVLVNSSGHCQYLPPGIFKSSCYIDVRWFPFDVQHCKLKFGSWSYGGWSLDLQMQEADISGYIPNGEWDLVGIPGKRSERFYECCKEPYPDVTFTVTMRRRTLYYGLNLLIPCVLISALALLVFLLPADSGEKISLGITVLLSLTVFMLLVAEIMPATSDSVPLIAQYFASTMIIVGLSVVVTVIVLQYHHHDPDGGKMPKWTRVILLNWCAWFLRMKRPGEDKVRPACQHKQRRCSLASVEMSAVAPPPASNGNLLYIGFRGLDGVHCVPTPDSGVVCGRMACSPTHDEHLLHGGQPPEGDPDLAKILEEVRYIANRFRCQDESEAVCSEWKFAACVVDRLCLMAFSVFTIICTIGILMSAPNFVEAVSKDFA
structure (smiles),measurement,setting,value
Cc1ccc(CN2CCN(C(=O)C(=O)Nc3ccc4c(ccn4C)c3)CC2)cc1,concentration at 35 min,[1],135 nM
same,concentration at 1 h,[2],64 nM
same,Activity,[3],Non-Toxic
same,Activity,[4],Active
same,Activity,[5],Non-Toxic
same,inhibition,[6],< 15%
same,Kp at 35 min,[7],4.93
same,EC50,[8],710 nM
same,inhibition,[9],< 15%
same,concentration at 35 min,[10],196 nM
same,concentration at 1 h,[11],233 nM
same,microsomal CLint at 1 µM,[12],158 µL/min/mg
same,Kp at 1 h,[13],1.32
same,Kp at 35 min,[14],4.01
same,Activity,[15],Active
same,Kp at 1 h,[16],1.88
same,inhibition,[17],< 15%
same,concentration at 35 min,[18],54 nM
same,concentration at 1 h,[19],142 nM
same,logP,[20],3.7
same,concentration at 1 h,[21],39 nM
same,concentration at 35 min,[22],657 nM
same,Kp at 1 h,[23],1.67
same,Activity,[24],< 7%
same,Activity,[25],Non-Toxic
same,Activity,[26],inactive
same,inhibition,[27],< 7%
same,EC50,[28],90 nM
same,Kp at 1 h,[29],1.68
same,Activity,[30],Non-Toxic
